Where a name gives a salt, the structure may show the parent alone.

The source of these data is patent publication US8153694B2, “Cyclopropanecarboxylic acid compound” (Takeda Pharmaceutical Company Limited, priority 2005, dated 2012).

The assay addresses T1, human GPR40 (Homo sapiens, UniProt O14842).
T1 construct: expressed in transfected cells; host or cells: CHO cell line stably expressing human GPR40
The assay is described as follows: Receptor function modulating action (agonist action) against human-derived GPR40: intracellular calcium change by FLIPR in CHO cells stably expressing human GPR40. Type of assay: cell-based. Here is the method: Receptor Function Modulating Action (Agonist Action) against Human-Derived GPR40 For determination of agonist activity, CHO cell line that stably expressed human GPR40 was used. […] The cells cultured to nearly confluent were rinsed with PBS (Invitrogen) on the previous day of the assay, peeled off with EDTA ([…], Wako Junyaku) and recovered by centrifugation. The number of the obtained cells was counted, and the cells were diluted such that 3×10^5 cells were contained per 1 mL of the medium, dispensed to a 96 well black clear bottom plate (coaster) by 100 μL per well and cultured overnight in a CO2 incubator. Various test compounds were added to the CHO cells thus prepared, and the changes in the intracellular calcium concentration were measured using FLIPR (Molecular Device). The below-mentioned pre-treatment was applied to measure changes in the intracellular calcium concentration by FLIPR. […] A fluorescence dye solution was prepared by adding 500 μM probenecid dissolved in 1N NaOH to the assay buffer to a final concentration of […], and adding the solution (10 mL) to 1 vial of component A (Molecular Device). One day before the assay, the medium of CHO cells re-plated on a 96 well black clear bottom plate was removed, and the cells were washed with D-PBS(−). […] Then, the fluorescence dye solution was dispensed by 100 μL per well, and the cells were cultured in a CO2 incubator for 1 hr to allow uptake of the fluorescence dye by the cells. During this period, the test compound was diluted to a given concentration with the assay buffer, and dispensed to a polypropylene 96-well plate (sample plate) by 100 μL. The cell plate and the sample plate were simultaneously set on FLIPR. After the above-mentioned pre-treatment, variation in the intracellular calcium concentration after addition of various test compounds (50 μL) was measured by FLIPR.
(In general: Calcium assays in cells follow changes in intracellular calcium, usually with a dye or a luminescent sensor.)

Where [1] appears, read: agonist activity of each compound at 1 μM, relative to the activity of 10 μM γ-linolenic acid as 100%, CHO cell line stably expressing human GPR40.

T1 sequence (O14842 whole entry): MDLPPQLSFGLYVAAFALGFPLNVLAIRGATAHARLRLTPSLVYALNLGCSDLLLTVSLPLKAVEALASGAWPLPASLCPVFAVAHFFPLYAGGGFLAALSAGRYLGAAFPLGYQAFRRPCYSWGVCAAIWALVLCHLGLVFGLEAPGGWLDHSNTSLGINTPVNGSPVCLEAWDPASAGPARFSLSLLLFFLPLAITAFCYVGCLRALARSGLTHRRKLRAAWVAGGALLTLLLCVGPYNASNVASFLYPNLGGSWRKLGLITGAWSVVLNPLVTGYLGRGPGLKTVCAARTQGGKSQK

For the molecule `CCCN(Cc1ccc(COc2ccc(C3CC3C(=O)O)cc2)cc1)c1nc(-c2ccc(C(F)(F)F)cc2)cs1` (centres unmarked) [Example 11, 2-[4-({4-[(propyl{4-[4-(trifluoromethyl)phenyl]-1,3-thiazol^-2-yl}amino)methyl]benzyl}oxy)phenyl]cyclopropanecarboxylic acid], the Relative activity value under setting [1] stood at 114%.

Turning to `CCOCCOc1cc(C)c(-c2cccc(COc3ccc(C4CC4C(=O)O)cc3)c2)c(C)c1` (centres unmarked) [Example 2, 2-(4-{[4′-(2-ethoxyethoxy)-2′,6′-dimethylbiphenyl-3-yl]methoxy}phenyl)cyclopropanecarboxylic acid], the Relative activity value under setting [1] stood at 111%.

Consider `Cc1cc(OCC2(C)COC2)cc(C)c1-c1cccc(COc2ccc(C3CC3C(=O)O)cc2)c1` (centres unmarked) [Example 7, 2-[4-({2′,6′-dimethyl-4′-[(3-methyloxetan-3-yl)methoxy]biphenyl-3-yl}methoxy)phenyl]cyclopropanecarboxylic acid], for which the Relative activity value under setting [1] came to 119%.

`CCCCC/C=C\C/C=C\C/C=C\CCCCC(=O)O` [γ-linolenic acid, reference compound]: the Relative activity value (reference: activity of 10 μM γ-linolenic acid (GPR40 agonist) set as 100%, CHO cell line stably expressing human GPR40) was found to be 100%.

In the case of `Cc1cc(OC2CCS(=O)(=O)CC2)cc(C)c1-c1cccc(COc2ccc(C3CC3C(=O)O)cc2)c1` (centres unmarked) [Example 5, 2-[4-({4′-[(1,1-dioxidotetrahydro-2H-thiopyran-4-yl)oxy]-2′,6′-dimethylbiphenyl-3-yl}methoxy)phenyl]cyclopropanecarboxylic acid], the Relative activity value under setting [1] is 108%.

Regarding `CC(C)CCN(Cc1ccc(COc2ccc(C3CC3C(=O)O)cc2)cc1)c1nc(-c2ccc(C(F)(F)F)cc2)cs1` (centres unmarked) [Example 9], under setting [1], the Relative activity value was determined as 99%.

For the molecule `O=C(O)C1CC1c1ccc(OCc2cccc(Oc3ccccc3)c2)cc1` (centres unmarked) [Example 13, 2-{4-[(3-phenoxybenzyl)oxy]phenyl)cyclopropanecarboxylic acid], under setting [1], the Relative activity value came to 109%.

`CCOCCOc1cc(C)c(-c2cccc(COc3ccc(C4CC4C(=O)O)cc3)c2)c(C)c1` (centres unmarked) [Example 3, 2-(4-{[4′-(2-ethoxyethoxy)-2′,6′-dimethylbiphenyl-3-yl]methoxy}phenyl)cyclopropanecarboxylic acid calcium salt]: the Relative activity value (agonist activity of each compound at 1 μM, relative to the activity of 10 μM γ-linolenic acid as 100%, CHO cell line stably expressing human GPR40, calcium salt) is recorded as 103%.
